This passage reports AR expression and PSMA expression results from patent US20140099257A1, “Androgen Suppression, Prostate-Specific Membrane Antigen and the Concept of Conditionally Enhanced Vulnerability” (CORNELL UNIVERSITY, priority 2012, published 2014).

The series has as its system AR. The series can be described thus: Silencing of AR with siRNA in prostate cancer cell lines; AR, PSMA expression (FACS, western blot) and PSA secretion. Type of series: cell-based, human. To be noted: FACS analysis of LNCaP, MDA-Pca-2b and LAPC-4 cells (FIG. 6). The protocol: For western blots, cells were lysed with Cell Lysis Buffer (Cell Signaling Technology, Danvers, Mass.) containing 1 mM phenylmethylsulphonyl fluoride (EMD Chemicals, Gibbstown, N.J.). Equal amounts of protein were applied in each well on a 10% Tris-HCl gel (Bio-Rad Laboratories, Hercules, Calif.). The proteins were transferred onto Immobilon-P Membranes (Millipore, Billerica, Mass.), after which the filters were probed with the following reagents: murine anti-PSMA mAb J591, murine mAb anti-AR (AR441), rabbit anti-human AR, murine mAb anti-human beta-actin, and/or goat polyclonal anti-GAPDH. For quantitative western blots, the Li-cor Odyssey Infrared Imaging System (Lincoln, Nebr.) was used. With this system, two different proteins of the same molecular weight (e.g., PSMA and AR) can be detected simultaneously and quantified on the same blot using two different antibodies from two different species (mouse and rabbit) followed by detection with two IRDye labeled secondary antibodies. […] After washing, the membranes were scanned and the bands were quantified with the Odyssey Infrared Imaging System.
Fluorescence-activated cell sorting (FACS) analysis was also employed in these examples0. […]
Background: Immunoblotting shows a protein as a band on a membrane.

Regarding “non-targeted-siRNA: non-targeting control siRNA 5′-CCUACGCCACCAAUUUCGU-3′ (Dharmacon) (chemistry not given here)”, the AR expression entry is listed as “did not affect expression” and the PSMA expression entry is listed as “did not affect expression”.
